Results reported in the supplement of paper PMC5908809.

Assays:
[1] = system: normal NK cells expanded with K562-aAPC; experiment: percent inhibition of viability; higher = more inhibition; settings: 72 h, IL-2 2.5 ng/mL
Procedure: (§1)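 Drug sensitivity and resistance testing on K562-aAPC-expanded normal NK cells: 5 concentrations (10-fold steps over a 10,000-fold range), 72 h at 37 °C, viability by CellTiter-Glo normalised to DMSO and benzethonium chloride controls; DSS from the fitted curve.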

DERL-7 (IL-2 2.5 ng/mL) [2] = experiment: as above; settings: 72 h
IMC-1 (IL-2 20 ng/mL) [3] = experiment: as above; settings: 72 h
KAI3 (IL-2 2.5 ng/mL) [4] = experiment: as above; settings: 72 h
KHYG-1 (IL-2 2.5 ng/mL) [5] = experiment: as above; settings: 72 h
NK-92 (IL-2 2.5 ng/mL) [6] = experiment: as above; settings: 72 h
NK-YS (IL-2 2.5 ng/mL) [7] = experiment: as above; settings: 72 h
NKL (IL-2 2.5 ng/mL) [8] = experiment: as above; settings: 72 h
SNK-6 (IL-2 2.5 ng/mL) [9] = experiment: as above; settings: 72 h
YT (IL-2 2.5 ng/mL) [10] = experiment: as above; settings: 72 h
[11] = system: normal primary NK cells, pool 1 (3 donors) (IL-2 2.5 ng/mL); experiment: as above; settings: 72 h
[12] = system: normal primary NK cells, pool 1 (3 donors), resting (IL-2 0 ng/mL); experiment: as above; settings: 72 h
[13] = system: normal primary NK cells, pool 2 (3 donors) (IL-2 2.5 ng/mL); experiment: as above; settings: 72 h
[14] = system: normal primary NK cells, pool 3 (3 donors) (IL-2 2.5 ng/mL); experiment: as above; settings: 72 h
[15] = system: normal NK cells expanded with K562-aAPC; experiment: drug sensitivity score (DSS) (DSS units); higher = more sensitive; extreme values may be limits of the assay; settings: 72 h; IL-2 2.5 ng/mL
Procedure: as §1

DERL-7 (IL-2 2.5 ng/mL) [16] = experiment: as above; settings: 72 h
IMC-1 (IL-2 20 ng/mL) [17] = experiment: as above; settings: 72 h
KAI3 (IL-2 2.5 ng/mL) [18] = experiment: as above; settings: 72 h
KHYG-1 (IL-2 2.5 ng/mL) [19] = experiment: as above; settings: 72 h
NK-92 (IL-2 2.5 ng/mL) [20] = experiment: as above; settings: 72 h
NK-YS (IL-2 2.5 ng/mL) [21] = experiment: as above; settings: 72 h
NKL (IL-2 2.5 ng/mL) [22] = experiment: as above; settings: 72 h
SNK-6 (IL-2 2.5 ng/mL) [23] = experiment: as above; settings: 72 h
YT (IL-2 2.5 ng/mL) [24] = experiment: as above; settings: 72 h
[25] = system: normal primary NK cells, pool 1 (3 donors) (IL-2 2.5 ng/mL); experiment: as above; settings: 72 h
[26] = system: normal primary NK cells, pool 1 (3 donors), resting (IL-2 0 ng/mL); experiment: as above; settings: 72 h
[27] = system: normal primary NK cells, pool 2 (3 donors) (IL-2 2.5 ng/mL); experiment: as above; settings: 72 h
[28] = system: normal primary NK cells, pool 3 (3 donors) (IL-2 2.5 ng/mL); experiment: as above; settings: 72 h

CCc1cnn2c(NCc3ccc[n+]([O-])c3)cc(N3CCCC[C@H]3CCO)nc12 [Dinaciclib] (max concentration tested 1000 nM)
percent inhibition of viability [%]
Settings	0.1 nM	1 nM	10 nM	100 nM	1000 nM
DERL-7 (IL-2 2.5 ng/mL) [2]	3.44	0.2	31.4	100	101
IMC-1 (IL-2 20 ng/mL) [3]	-1.04	-1.9	44	99.7	102
KAI3 (IL-2 2.5 ng/mL) [4]	5.48	7.7	54.5	108	110
KHYG-1 (IL-2 2.5 ng/mL) [5]	-3.45	-3.48	42.5	109	112
NK-92 (IL-2 2.5 ng/mL) [6]	-2.1	2.09	67.9	108	111
NK-YS (IL-2 2.5 ng/mL) [7]	-6.76	-1.49	87.6	104	109
NKL (IL-2 2.5 ng/mL) [8]	4.95	3.07	88.7	109	112
SNK-6 (IL-2 2.5 ng/mL) [9]	-7.12	-37	81.4	47.2	48.2
YT (IL-2 2.5 ng/mL) [10]	-2.44	2.09	93.8	108	111
[1]	-4.8	-2.24	30.3	101	102
[11]	-4.8	3.36	45.1	98.6	98.7
[12]	-4.86	1	21.3	91.6	92.6
[13]	-6.55	2.06	90.3	97.1	94.6
[14]	-4.86	2.55	72	99.3	100

Settings	drug sensitivity score
DERL-7 (IL-2 2.5 ng/mL) [16]	22.5
IMC-1 (IL-2 20 ng/mL) [17]	23.7
KAI3 (IL-2 2.5 ng/mL) [18]	24.6
KHYG-1 (IL-2 2.5 ng/mL) [19]	23.6
NK-92 (IL-2 2.5 ng/mL) [20]	25.9
NK-YS (IL-2 2.5 ng/mL) [21]	28.3
NKL (IL-2 2.5 ng/mL) [22]	28.8
SNK-6 (IL-2 2.5 ng/mL) [23]	23.7
YT (IL-2 2.5 ng/mL) [24]	29.8
[15]	22.4
[25]	23.2
[26]	20
[27]	28.8
[28]	26.6

Cc1ccc(-n2nc(C(C)(C)C)cc2NC(=O)Nc2ccc(OCCN3CCOCC3)c3ccccc23)cc1 [Doramapimod] (max concentration tested 10000 nM)
percent inhibition of viability [%]
Settings	1 nM	10 nM	100 nM	1000 nM	10000 nM
DERL-7 (IL-2 2.5 ng/mL) [2]	-1.24	0.45	-6.35	0.4	31.3
IMC-1 (IL-2 20 ng/mL) [3]	-7.13	-0.74	1.31	8.39	27.3
KAI3 (IL-2 2.5 ng/mL) [4]	-7.62	9.59	18.9	43.5	68
KHYG-1 (IL-2 2.5 ng/mL) [5]	-0.62	4.98	0.58	7.1	56.5
NK-92 (IL-2 2.5 ng/mL) [6]	13	11	8.99	11.7	71.5
NK-YS (IL-2 2.5 ng/mL) [7]	-8.49	3.68	5.33	24.4	63.3
NKL (IL-2 2.5 ng/mL) [8]	-7.33	-0.1	12	80.7	98.6
SNK-6 (IL-2 2.5 ng/mL) [9]	-8.06	6.04	-5.96	-39.3	6.22
YT (IL-2 2.5 ng/mL) [10]	1.11	9.26	7.83	16.7	45
[1]	-6.83	-0.74	-1.74	16.5	52.8
[11]	2.74	-0.9	-0.42	-10.6	91.3
[12]	0.09	-4.02	-3.55	3.17	94.7
[13]	-9.43	-4.09	6.14	-0.89	85.1
[14]	-11.6	-1.56	4.57	2.15	85.2

Settings	drug sensitivity score
DERL-7 (IL-2 2.5 ng/mL) [16]	1.44
IMC-1 (IL-2 20 ng/mL) [17]	2.23
KAI3 (IL-2 2.5 ng/mL) [18]	10.7
KHYG-1 (IL-2 2.5 ng/mL) [19]	4.24
NK-92 (IL-2 2.5 ng/mL) [20]	5.9
NK-YS (IL-2 2.5 ng/mL) [21]	6.27
NKL (IL-2 2.5 ng/mL) [22]	16.4
SNK-6 (IL-2 2.5 ng/mL) [23]	0
YT (IL-2 2.5 ng/mL) [24]	3.98
[15]	5.25
[25]	4.39
[26]	5.69
[27]	4.66
[28]	5.02
